First: O=C1CCCCCCC1F (configuration not stated)
Second: O=C1Nc2ccc(Br)cc2C2(CCCCC2)O1
The melting point of the first is lower: 48.1 to 49.8 °C for the first, 208 to 210 °C for the second.

Compared with `Fc1ccc(C(CN2CCOCC2)=C2SCCCS2)cc1`, `CC(=O)N[C@H]1CCN(C(=O)c2ccc(-c3[nH]nc4c3C(=O)c3c(NC(=O)NN5CCOCC5)cccc3-4)s2)C1` is higher in melting point: 104 to 106 °C for the first, 264 to 265 °C for the second.

Compared with `Cc1cc([C@@H](O)[C@@H]2[C@@H](C)CCCC2(C)C)ccc1C#N`, `CCON1CCC(C#N)(NC(=O)Cc2c(C)cc(C)cc2C)CC1` is higher in melting point: 111 to 113 °C for the first, 194 to 195 °C for the second.

First: O=C1Nc2nncn2CC1c1ccccc1 (configuration not stated)
Second: N#CC(c1ccccc1)c1ccc(Cl)nn1 (configuration not stated)
The melting point of the first is higher: 184 to 186 °C for the first, 131 °C for the second.

First: CC(C(=O)OCc1ccc([N+](=O)[O-])cc1)N(C(=O)OC(C)(C)C)C1CC1 (configuration not stated)
Second: CC1=C(C(=O)OC(C)(C)C)C(c2cccc([N+](=O)[O-])c2)N(C(=O)N(C)C)C(=O)N1 (configuration not stated)
The melting point of the first is lower: 117 to 118 °C for the first, 187 to 188 °C for the second.

First: COc1ccccc1CN1CCN(CCN2CCC(O)(c3ccccc3)CC2)C(c2ccccc2)C1 (configuration not stated)
Second: c1ccc(C(c2ccccc2)N2CCN(CCCCn3cccc3)CC2)cc1
The melting point of the first is lower: 63 to 65 °C for the first, 80 to 84 °C for the second.

Compared with `O=C1Cc2cc3c(cc2C(c2ccco2)=NN1)OCO3`, `O=C(O)c1cnc2cc3c(cc2c1O)OCO3` is higher in melting point: 234 to 236 °C for the first, greater than 290 °C for the second.

Compared with `Cc1ccc(C(=O)c2ccc(Cc3ccc(N)cn3)n2C)cc1`, `COc1ccc(Nc2ncccc2NS(=O)(=O)c2ccc(O)cc2)cc1` is higher in melting point: 104 to 107 °C for the first, 214 to 216 °C for the second.

`O=C1Nc2c(cc([N+](=O)[O-])cc2[N+](=O)[O-])C1c1ncnc2c1cnn2C1CCCC1` (configuration not stated) and `N#Cc1cnn2c(-c3cccc([N+](=O)[O-])c3)ccnc12` cannot be ordered by melting point: 242 to 246 °C for the first, 244 to 246 °C for the second.

First: CCOC(=O)CCCNC(=O)c1n[nH]cc1NC(=O)c1ccccn1
Second: O=C(NNC(=O)c1ccccn1)c1ccccn1
The melting point of the first is lower: 179 to 180 °C for the first, 224 to 225 °C for the second.

`CCC(=O)NC(C)(C)C` and `CCOC(=O)C(Cc1cccc2cccnc12)(NC(=O)CC)C(=O)OCC` cannot be ordered by melting point: 90 to 92 °C for the first, 80 to 100 °C for the second.

First: CCCc1nn(C)c2c(=O)[nH]c(-c3cc(CCCN)ccc3OCC)nc12
Second: CCCCOc1cc(CCC(=O)O)ccc1CCCc1ccc(OS(=O)(=O)CC)c(OC)c1
The melting point of the first is higher: 115 to 117 °C for the first, 64 °C for the second.

Compared with `CN1CCC(C2c3ccccc3C=Cc3ccc(Br)cc32)CC1` (single isomer, unassigned; (+)), `CN1CCC(NNC(=O)c2ccccc2)CC1` is lower in melting point: 178 to 180 °C for the first, 149 to 150 °C for the second.

First: CC(=O)OCC(C(OC(C)=O)c1cccc(F)c1)[N+](=O)[O-] (configuration not stated)
Second: CC(C)C(=C=O)NC(=O)Nc1ccc([N+](=O)[O-])cc1O
The melting point of the first is lower: 94 °C for the first, 168 to 169 °C for the second.

First: CCOC(=O)c1cnn(C)c1C(=O)Nc1ccc2nc(N(C)C)nn2c1
Second: CN(C)c1nc2n(n1)CCc1ccccc1-2
The melting point of the first is higher: 194 °C for the first, 66 to 68 °C for the second.

Going from `CC1(C)CCC(C)(C)c2cc3c(cc21)OCC3(C)c1cc(C=C(Br)Br)cs1` (configuration not stated) to `Cc1c(NC(=O)c2ccc(OCC3CC3)cc2)ccc2cc(CN3CCC(C)(O)CC3)[nH]c12`, the melting point rises from 124 °C to 195 °C.

Compared with `COc1ccc2c(c1)C13CCN(C)C(C2)C1C(C)C(C)C(=O)C3` (configuration not stated), `COc1ccc2c(c1)c(C=O)cn2CCCCl` is lower in melting point: 101 to 102 °C for the first, 75 to 76 °C for the second.

Compared with `O=C(Cc1ccccc1)Cc1ccc(Cl)c(Cl)c1`, `O=C(O)Cc1ccc(OCCNCC(O)c2ccccc2)cc1` (configuration not stated) is higher in melting point: 131 to 133 °C for the first, 183 to 184 °C for the second.

First: C=CCC(C)(C)C(O)C(c1cccc(Cl)c1)n1ccnc1 (configuration not stated)
Second: CC(O)CNc1c(Br)cnc2cc(Cl)ccc12 (configuration not stated)
The melting point of the first is lower: 95 °C for the first, 161 to 163 °C for the second.

First: CC(C)(C)OC(=O)N1CCN(c2cc(N)nc(N)n2)CC1
Second: CN1CCN(c2ccc3ncnc(N4CCc5ccc(Cl)cc54)c3c2)CC1
The melting point of the first is lower: 176 to 179 °C for the first, 289 to 290 °C for the second.

First: COc1ccccc1N1CCN(CCCCc2c[nH]c3ccccc23)CC1
Second: COc1cc(C(C)=O)ccc1OCCCN1CCN(c2n[nH]c3ccccc23)CC1
The melting point of the first is lower: 113 to 115 °C for the first, 155 to 157 °C for the second.

Compared with `Cc1oc(-c2ccccc2)nc1CCOc1ccc(CC(F)(C(=O)NS(C)(=O)=O)c2ccccc2)cc1` (configuration not stated), `CC1(C)C=Cc2cc(C(=O)NCCc3ccc(OCc4ccccc4)cc3)ccc2O1` is higher in melting point: 118 to 120 °C for the first, 133 to 135 °C for the second.

First: O=C(O)c1ccccc1CNC1CCOC1=O (configuration not stated)
Second: O=C1CCC(c2ccc3[nH]c(C(=O)O)cc3c2)=NN1
The melting point of the first is lower: 112 to 114 °C for the first, 185 to 187 °C for the second.

Compared with `C[Si](C)(C)OC(Cn1ccnc1)(Cn1cncn1)c1ccc(F)cc1F` (configuration not stated), `CCOc1c2ccccc2nc2c1c(C)nn2-c1ccccn1` is higher in melting point: 87 to 89 °C for the first, 121 to 123 °C for the second.

First: Nc1cccc(-c2nc3n(n2)CCc2ccccc2-3)c1
Second: O=C1Cn2c(c(Cl)c3ccccc32)-c2ccccc2N1
The melting point of the first is lower: 118 to 119 °C for the first, 287 to 289 °C for the second.

Compared with `O=[N+]([O-])c1ccc(O)cc1Br`, `O=[N+]([O-])C=Cc1cccc(Cl)c1Cl` is lower in melting point: 130 to 135 °C for the first, 89 to 91 °C for the second.

Compared with `Nc1ccc2nc3c(=O)[nH][nH]c(=O)c3c(O)c2c1`, `COc1cc(N)ccc1-c1sc(C)nc1C` is lower in melting point: 219 to 221 °C for the first, 112 to 115 °C for the second.

First: O=C(O)c1cn(C2CC2)c2cc(N3CCNC(CF)C3)c(F)cc2c1=O (configuration not stated)
Second: CC(=S)NCC1CN(c2ccc(N(C)C=O)c(F)c2)C(=O)O1 (configuration not stated)
The melting point of the first is higher: 202 to 203 °C for the first, 105 to 107 °C for the second.

First: C#Cc1cc(C)c(C2=C(O)C3(CCN(OC)CC3)N(C)C2=O)c(C)c1
Second: COC(=O)C1(N(C)C(=O)Cc2c(C)cc(C)cc2C)CCN(OC)CC1
The melting point of the first is higher: 258 to 260 °C for the first, 133 to 135 °C for the second.

First: NS(=O)(=O)c1ccc(S(=O)(=O)N2CCc3cccc(-c4ccc(F)cc4)c32)cc1
Second: COc1ccc(S(=O)(=O)C2(C(=O)O)CCN(Cc3ccc(-c4cccs4)cc3)CC2)cc1
The melting point of the first is lower: 189 to 190 °C for the first, 235 °C for the second.

First: COc1cc(/C=C/C(=O)O)cc(OC)c1OCc1ccccc1
Second: C=C(C)C(=O)OCCOC(=O)C(=O)OCc1ccc(OCc2ccccc2)cc1
The melting point of the first is higher: 102 °C for the first, 40 to 42 °C for the second.

`COc1ccnc(CCc2nc3cc(-c4ccc5[nH]ccc5c4)cnc3[nH]2)c1` and `O=[N+]([O-])c1cccc(-c2ccnc3[nH]c4ccccc4c23)c1` cannot be ordered by melting point: 241 to 242 °C for the first, greater than 220 °C for the second.

First: CC1(C(=O)Nc2ccc(C3=NNC(=O)C4CC34)cc2)CC1 (configuration not stated)
Second: OC1(C(F)(F)F)ON=C(c2ccc(Cl)cc2)C1Cl (configuration not stated)
The melting point of the first is higher: 253 to 255 °C for the first, 126 to 127 °C for the second.

First: O=[N+]([O-])c1ccc(Oc2ccc(C(c3ccc(Oc4ccc([N+](=O)[O-])c(O)c4)cc3)(C(F)(F)F)C(F)(F)F)cc2)cc1O
Second: Cc1cccc(CNC(=O)c2ccc3n2Cc2ccccc2N(C(=O)COc2ccc(Cl)cc2)C3)c1
The melting point of the first is higher: 148 to 151 °C for the first, 130 to 131 °C for the second.

First: NS(=O)(=O)c1cscc1C(=O)O
Second: NS(=O)(=O)c1ccsc1C1=NOCCO1
The melting point of the first is higher: 222 to 224 °C for the first, 180 °C for the second.

First: O=c1cc(N2CCCCC2)sn1CCc1ccccc1
Second: Cn1nc(C(F)(F)F)nc1NC(=O)CCCOc1cccc(CN2CCCCC2)c1
The melting point of the first is higher: 106 to 108 °C for the first, 96 to 97 °C for the second.

`O=Cc1c(Cl)nc2ccccc2c1-c1ccc(F)cc1` and `O=c1ccc(C(c2ccccc2)c2ccc(Cl)cc2)c[nH]1` (configuration not stated) cannot be ordered by melting point: 168 to 170 °C for the first, 164 to 169 °C for the second.

Compared with `COC(=O)c1ccc(Cl)cc1NC(=O)CSc1ccccc1Cl`, `COC(=O)c1c(-c2ccc(Cl)cc2)ccnc1Br` is lower in melting point: 99 to 101 °C for the first, 73 to 76 °C for the second.

First: CC(=O)Nc1nc(CCc2ccc(NC(NC(=O)OC(C)(C)C)NC(=O)OC(C)(C)C)cc2)cs1
Second: CC(C)(C)OC(=O)/C(=C/c1ccccc1Cl)C(=O)c1ccccc1O
The melting point of the first is higher: 276 °C for the first, 75 to 78 °C for the second.

Compared with `O=C(Oc1c(F)c(F)c(F)c(F)c1F)c1ccccc1O`, `CCOC(=O)C1=C(C)NC(C)=C(C(=O)OC)C1c1cccc(C#N)c1` (configuration not stated) is higher in melting point: 111 to 112 °C for the first, 150 °C for the second.

First: c1ccc2c(c1)CC(Nc1ncnc3nc[nH]c13)C2
Second: Cc1ccccc1S(=O)(=O)NC1CCc2sccc2C1 (configuration not stated)
The melting point of the first is higher: 300 °C for the first, 130 to 132 °C for the second.

First: COc1ccc2nc(-c3ccccc3)cc(C(=O)Nc3ccc(CCCCN(C)Cc4ccc(OC)c(OC)c4)cc3)c2c1
Second: CC(C)n1nc(-c2c(OCc3ccccc3)nc(N)nc2-c2ccccc2)ccc1=O
The melting point of the first is lower: 148 °C for the first, 162 to 163 °C for the second.

First: COc1cc(CC(=O)NCCOc2scc(C)c2C)ccc1OCCN
Second: COc1nc(C)cnc1N(C(=O)OCC(C)C)S(=O)(=O)c1cccnc1Cl
The melting point of the first is lower: 85 to 87 °C for the first, 99 to 101 °C for the second.

Compared with `O[C@H]1CC[C@H](N(Cc2ccccc2)Cc2ccccc2)CC1`, `CC1Nc2ccccc2N(Cc2ccccc2)C(=O)C1Cc1ccccc1` (configuration not stated) is higher in melting point: 97 to 99 °C for the first, 140 to 141 °C for the second.

Compared with `N#Cc1coc2c(Cl)cc(Cl)cc2c1=O`, `Ic1ccc(C2CCCCO2)cc1-c1cc(C2CCCCO2)ccc1I` (configuration not stated) is lower in melting point: 150 °C for the first, 112 to 113 °C for the second.

First: O=C(c1ccc(-n2ccc(C(F)(F)F)n2)cc1)N1Cc2cccn2Cc2ccccc21
Second: O=C1c2ccccc2C(=O)N1CC(=O)N1c2ccccc2N(Cc2ccccc2)C(=O)CC1C=Cc1ccccc1 (configuration not stated)
The melting point of the first is lower: 166 to 167 °C for the first, 183 to 184 °C for the second.

First: Cc1nc(N2CCN(Cc3cccnc3)C2=O)sc1C(=O)NCc1ccccc1
Second: CN(C)C1CCN(c2nccc(Oc3ccc(NC(=O)c4cc(F)cc(N5CCCCC5)c4)c4ccccc34)n2)C1 (configuration not stated)
The melting point of the first is higher: 110 to 113 °C for the first, 93 to 94 °C for the second.

First: Cc1c(NC(=O)CC(C)(C)C)c(C)c2c(c1-c1cccc(N)n1)OCC2c1ccc(C(C)C)cc1 (configuration not stated)
Second: Cn1nnc(-c2ccc(C=Cc3ccc(-c4nc5ccccc5o4)cc3)cc2)c1C#N
The melting point of the first is lower: 237 to 239 °C for the first, 264 to 266 °C for the second.

Compared with `O=[N+]([O-])c1cc(S(=O)(=O)N(CCO)CCO)sc1Cl`, `CCC(C)(C)NC(Nc1ccc2c(c1)OCO2)=C(C#N)S(C)(=O)=O` is lower in melting point: 100 °C for the first, 86 to 88 °C for the second.

First: CC#CCOc1ccc(S(=O)(=O)NCCC(=O)OC(C)(C)C)cc1
Second: COCc1ncn2c1CN(C)C(=O)c1ccccc1-2
The melting point of the first is lower: 63 to 65 °C for the first, 115 to 116 °C for the second.

First: CC1(C)CN(C2CC3(C)C(CCC4C3CCC3(C)C(C(=O)CSC#N)CCC43)CC2O)CCO1 (configuration not stated)
Second: COC1CCC2C3CCC4CC(O)CCC4(C)C3CCC12C (configuration not stated)
The melting point of the first is higher: 166 °C for the first, 150 to 152 °C for the second.
